Assay [1] deals with Escherichia coli. Description: Decrease in susceptibility of qnrS-positive transconjugant streptomycin-resistant Escherichia coli C600. The format is functional.
Assay [2] concerns Enterobacter cloacae. Description: Susceptibility of qnr positive Enterobacter cloacae assessed as percentage nonsusceptible isolates. The format is functional.
Assay [3] deals with Enterobacter cloacae. Description: Susceptibility of metallo beta lactamase and extended spectrum beta lactamase deficient qnr positive Enterobacter cloacae assessed as percentage nonsusceptible isolates. The format is functional.
The test system of assay [4] is Enterobacter cloacae. Description: Susceptibility of qnr positive Enterobacter cloacae producing IMP8 and/or SHV12 assessed as percentage nonsusceptible isolates.
Assay [5] concerns Escherichia coli. Description: Decrease in susceptibility of qnrB-positive transconjugant streptomycin-resistant Escherichia coli C600. The format is functional.
For assay [6], the system named is Enterobacter cloacae. Description: Susceptibility of qnr positive Enterobacter cloacae. The format is functional.

We go through eight compounds from ChEMBL document CHEMBL1147091, “Prevalence of plasmid-mediated quinolone resistance determinants QnrA, QnrB, and QnrS among clinical isolates of Enterobacter cloacae in a Taiwanese hospital” (2007).

Converted amounts (≈) assume the structure as drawn. The source made the active and inactive calls. The rule behind the calls is not given here. A value given as a limit tells only on which side of the number the result lay.

As for `O=C(O)c1cn(C2CC2)c2cc(N3CCNCC3)c(F)cc2c1=O` [CIPROFLOXACIN], the Activity in the assay on Escherichia coli [1] came to 0.25 µg/mL.

Turning to `C[C@@H](O)[C@H]1C(=O)N2C(C(=O)O)=C(SCCNC=N)C[C@H]12` [IMIPENEM ANHYDROUS], in the assay with Enterobacter cloacae [2], the Activity is 9.3%.

For `CC(C)(O/N=C(\C(=O)N[C@@H]1C(=O)N2C(C(=O)[O-])=C(C[n+]3ccccc3)CS[C@H]12)c1csc(N)n1)C(=O)O` [CEFTAZIDIME], the Activity was 29.4% in the assay on Enterobacter cloacae [3], 86% with Enterobacter cloacae [2] and 100% with Enterobacter cloacae [4].

As to `CO/N=C(\C(=O)N[C@@H]1C(=O)N2C(C(=O)O)=C(COC(C)=O)CS[C@H]12)c1csc(N)n1` [CEFOTAXIME], the Activity in the assay with Enterobacter cloacae [2] stood at 97.8%.

As for `CC(=O)OCC1=C(C(=O)O)N2C(=O)[C@@H](NC(=O)Cc3cccs3)[C@H]2SC1`, the outcome in the assay on Escherichia coli [1] was inactive.

With `NCC[C@H](O)C(=O)N[C@@H]1C[C@H](N)[C@@H](O[C@H]2O[C@H](CN)[C@@H](O)[C@H](O)[C@H]2O)[C@H](O)[C@H]1O[C@H]1O[C@H](CO)[C@@H](O)[C@H](N)[C@H]1O` [AMIKACIN], the Activity in the assay on Enterobacter cloacae [2] is recorded as 3.5%.

`CC1(C)S[C@@H]2[C@H](NC(=O)[C@H](N)c3ccccc3)C(=O)N2[C@H]1C(=O)O`: in the assay on Escherichia coli [1], the result was inactive.

In the case of `CCn1cc(C(=O)O)c(=O)c2ccc(C)nc21` [NALIDIXIC ACID], the minimal inhibitory concentration (MIC) against Escherichia coli [5] stood at 16 µg/mL (≈ 68.9 µM); against Escherichia coli [1] (Escherichia coli, C600), 16 µg/mL (≈ 68.9 µM). For the same compound, the Activity in the assay with Enterobacter cloacae [2] stood at 100%. Besides, the MIC90 against Enterobacter cloacae [6] is more than 256 µg/mL.
